The results in this text go back to patent publication US10989719B2, “Methods for treating spinocerebellar ataxia type I using RPA1” (National University Corporation Tokyo Medical and Dental …, priority 2013, dated 2021).

“Also recorded” adds a separate entry of the source.

This assay relates to OK6>SCA1 flies. As to the kind of experiment: Chemical therapy on hSCA1 Drosophila: lifespan on medium supplemented with CHK1 inhibitor. It is filed as in vivo. The following applies: adult flies. As to the method:
FIG. 29 is a graph showing the results of a lifespan analysis of OK6>SCA1 flies fed on media supplemented with a CHK1 inhibitor (CHIR-124). The statistical analysis of the average values of the lifespan was performed by log-rank test.
A CHK1-specific inhibitor, CHIR-124 (manufactured by AXON MEDCHEM), was dissolved at 5 mg/mL in 1N hydrogen chloride and diluted to multiple concentrations with 0.05 N solution. Note that the medium used here was a 1:1 mixture of Instant Drosophila medium D7670 (manufactured by Sigma Aldrich) and Formula 4-24 Instant Drosophila medium (manufactured by Calolina). As a control, a medium to which an equal amount of 0.05 N hydrogen chloride solution was added was also prepared.
In this respect, whether or not the inhibition of a signal mediated by CHK1 mitigates the lifespan shortening in the SCA1 fly model was examined. Specifically, a CHK1-specific inhibitor (CHIR-124) was used. This inhibitor was added to feed (corn-meal medium) at multiple concentrations, and adult flies were fed on the feed. As a result, the lifespan of OK6>SCA1 was improved at 0.00016 mg/mL and 0.02 mg/mL (see FIG. 29). In addition, the improvement effect was more remarkable in an example where the inhibitor was given at a higher concentration. The lifespan of the flies treated with CHIR-124 at 0.02 mg/mL was elongated by 35% (see FIG. 29).

For `O=c1[nH]c2ccc(Cl)cc2c(N[C@@H]2CN3CCC2CC3)c1-c1nc2ccccc2[nH]1` [CHIR-124, 4-[((3S)-1-azabicyclo[2.2.2]oct-3-yl)amino]-3-(1H-benzimidazol-2-yl)-6-chloroquinolin-2(1H)-one], the “lifespan of OK6>SCA1” value (0.00016 mg/mL in feed) is recorded as “improved”. In addition, under “0.02 mg/mL in feed”, the lifespan elongation stood at 35% and the “lifespan of OK6>SCA1” value was “ameliorated the lifespan-shortening; also recorded: improved”.
